From US7695930B2, “Method for the detection, identification and/or quantification of microoganisms with peptidase activity using phenoxazinone derivatives as enzyme substrates” (Biomerieux, priority 2003, dated 2010) come the findings set out here.

In assay [1] the test system is Escherichia coli (NCTC 10418). Nature of the assay: Alanine peptidase detection, substrates with one to three amino acids (Example 15). Format: cell-based. The arrangement: key to color of the colony: R=pink; RP=pale pink; I=colorless. Conditions: 50 mg/l. The procedure: (§1) 1000 ml of Columbia medium was melted in a waterbath at 100° C. and autoclaved at 121° C. for 15 min. It was then cooled to 50° C. in a waterbath.
(§2) This medium was separated into 5 flasks of 200 ml, and then, added at 50° C., as substrates, was that of Example 2 for which A is: • medium 1: L-alanine (L-alanine-9-aminobenzo[a]phenoxazin-5-one or A-ABP), • medium 2: L-alanine-L-alanine (L-alanine-L-alanine-9-aminobenzo-[a]phenoxazin-5-one or AA-ABP), • medium 3: L-alanine-L-alanine-L-alanine (L-alanine-L-alanine-L-alanine-9-aminobenzo[a]phenoxazin-5-one or AAA-ABP), • medium 4: L-alanine-glycine (L-alanine-glycine-9-aminobenzo[a]phenoxazin-5-one or AG-ABP), and • medium 5: glycine-L-alanine (glycine-L-alanine-9-aminobenzo[a]phenoxazin-5-one or GA-ABP), each substrate being solubilized in DMSO and used at a final concentration of 50 mg/l.
(§3) The medium was then poured into Petri dishes.
(§4) Nine microorganism strains derived from the Applicant's collection, suspended in physiological saline, were seeded in colonies on the media prepared in point 15.1 above according to a multipoint inoculation in a proportion of 15 000 cfu/spot. The dishes were incubated at 37° C. for 48 hours. The colonies formed were examined visually after incubation for 24 and 48 hours.
(§5) The results are expressed in Tables 7 and 8 hereinafter according to the rules and the nomenclature stated in paragraph 11.3 and where R=pink, RP=pale pink and I=colorless.

Assay [2] deals with Acinetobacter baumannii (ATCC 19606). The description is as above. Format: cell-based. Set-up: key to color of the colony: R=pink; RP=pale pink; I=colorless. The note with it: 50 mg/l. The procedure:
as §1, §2, §3, §4, §5

“L-alanyl-9-aminobenzo[a]phenoxazin-5-one [Ala-ABP]”: the “color of the colony” value in assay [1] (24 h), in assay [1] (48 h), in assay [2] (24 h) and in assay [2] (48 h) was “R” in each case. In addition, the growth diameter in assay [1] (24 h), in assay [1] (48 h), in assay [2] (24 h) and in assay [2] (48 h) was 3 mm in each case.
